Assay results published in US5288621A, “Pituitary TRH receptor” (Cornell Research Foundation, Inc., priority 1990, dated 1994).
Read-outs that look alike come from different tables or passages of the source.

Columns and labels:
[1] = biological target: T1, TRH receptor (TRH-R) expressed in Xenopus oocytes (Mus musculus, UniProt P21761); assay: Competition for [3H]methylTRH binding to intact Xenopus oocytes injected with RNA transcribed in vitro from pBSmTRHR
T1 construct: injected with RNA transcribed in vitro from the plasmid containing the TRH-R cDNA (pBSmTRHR); expressed in transfected cells; host or cells: Xenopus laevis oocytes injected with in vitro transcribed RNA from pBSmTRHR
T1 sequence (P21761 1-393): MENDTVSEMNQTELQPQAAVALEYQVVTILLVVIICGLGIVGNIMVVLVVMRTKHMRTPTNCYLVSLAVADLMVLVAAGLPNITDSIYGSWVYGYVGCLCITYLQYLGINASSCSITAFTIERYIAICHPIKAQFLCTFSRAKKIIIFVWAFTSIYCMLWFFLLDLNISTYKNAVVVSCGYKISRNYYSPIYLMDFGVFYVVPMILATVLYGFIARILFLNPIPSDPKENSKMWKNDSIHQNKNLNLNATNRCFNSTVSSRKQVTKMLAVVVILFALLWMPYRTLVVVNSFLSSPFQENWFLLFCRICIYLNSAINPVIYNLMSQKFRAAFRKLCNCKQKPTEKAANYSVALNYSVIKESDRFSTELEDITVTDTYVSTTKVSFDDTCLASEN
Method: FIG. 2 depicts TRH (the filled squares) and chlordiazepoxide (the unfilled circles) competion for the binding of [^3 H]methylTRH to oocytes expressing TRH receptors 3 days after injection of 5 ng of in vitro transcribed RNA. The results are presented in this figure as mean ± S.E. of duplicate determinations.
Xenopus oocytes were injected with 5 ng of sense RNA transcripts ans assayed for specific binding of TRH and electrophysiological responses to TRH. Binding to intact oocytes was performed as described in the literature [see Molecular Endocrinology 3:9070 (1989)], using 2 nM [^3 H]methylTRH as the labeled ligand, and unlabeled TRH and chlordiazepoxide as competitive inhibitors.
Five to 10 oocytes were incubated at 4° C. in 0.2 ml OR-2 containing 40 nm [^3 H]methylTRH without or with 1 μl unlabeled TRH for up to 3 hours. Oocytes were washed 7 times with 4 ml ice-cold OR-2 solution and radioactivity measured by liquid scintillation counting. Specific binding was calculated by subtracting radioactivity bound in the presence from that in the absence of unlabeled TRH. Nonspecific binding was between 30 and 45% of total binding.

[2] = biological target: T2, TRH-R expressed in Xenopus oocytes (Mus musculus, UniProt P21761); assay: Electrophysiological response to TRH in voltage-clamped Xenopus oocytes injected with RNA transcribed from the TRH-R cDNA; assay type: cell-based; details: 3 days after injection of 5 ng RNA
T2 construct: injected with RNA transcribed in vitro from the plasmid containing the TRH-R cDNA (pBSmTRHR); expressed in transfected cells; host or cells: Xenopus laevis oocytes injected with in vitro transcribed RNA from pBSmTRHR
T2 sequence (P21761 1-393): T1 sequence (P21761 1-393)
Method: FIG. 3 more specifically depicts the concentration-response relationship of Xenopus oocytes 3 days following injection of 5 ng of in vitro transcribed RNA. In FIG. 3, the results are presented from two experiments with N≥6.
A single oocyte, in a 0.4 ml perfusion chamber, was impaled with two standard glass electrodes filed with 3M KCl and maintained under voltage clamp using a Dagan 8500 intracellular clamp. Drugs were included in the perfusate and applied at a flow rate of 8 ml/min. The apparent latency is the time between achieving greater than 80% of the perfusate concentration in the perfusion chamber (5.5 sec after switching to TRH) and the initial deflection of the pen on the chart recorder due to membrane depolarization.
RNA was injected (25-50 nl) at the equator of oocytes, and responses were tested 24 to 72 hours after injection.
This dose dependency is the same as that observed in GH3 cells when rapid effects of TRH, such as generation of inositol 1,4,5-triphosphate or elevation of cytoplasmic calcium, were measured [see J Biol Chem 261:2712 (1986) and J Biol Chem 259:5827 (1984)].

[3] = biological target: T3, TRH-R expressed in COS-1 cells (Mus musculus, UniProt P21761); assay: TRH-stimulated inositol phosphate formation in COS-1 cells transfected with pCDM8mTRHR; assay type: cell-based; details: labeled with myo-[3H]inositol 48 hours
T3 construct: the entire TRH-R cDNA, according to the present invention, contained in a Not I/HindIII fragment was cloned directly into the eukaryotic expression vector pCDM8; expressed in transfected cells; host or cells: COS-1 cells transfected with pCDM8mTRHR
T3 sequence (P21761 1-393): T1 sequence (P21761 1-393)
Method: In FIGS. 6 and 7, COS-1 cells were transfected with the TRH-R cDNA according to the present invention, in the mammalian expression vector pCDM8 (pCDM8m TRHR) and assayed for binding and responses 48 hours later. […] In FIG. 7, COS-1 cells transfected with pCDM8mTRHR were labeled with myo-[^3 H]inositol for 48 hours, washed, and tested for dose-dependent stimulation of inositol phosphate production by TRH. The results are presented as mean ± S.D. of triplicate determinations from one of two similar experiments.
COS-1 cells were transfected using the DEAE dextran method, and after 48 to 72 hours the cells were assayed for [^3 H]methylTRH binding and TRH stimulated inositol phosphate formation.
On the day prior to transfection, 35 mm, 6 well tissue culture plates were seeded with 6×10^5 in DMEM with 10% FCS; cells should be just subconfluent for transfection. A transfection cocktail was prepared: supercoiled plasmid DNA (ethanol precipitated if necessary) was resuspended in 0.3 ml PBS, and then vortexed. 0.1 ml DEAE-dextran was added to bring the final concentration to 0.5 mg/ml, and the solution mixed thoroughly. The tissue culture medium was aspirated from the cell cultures and the COS cells were rinsed twice with 2 ml of PBS warmed to 37° C. […]

[4] = biological target: T3, TRH-R expressed in COS-1 cells; assay: Competition for [3H]methylTRH binding in COS-1 cells transfected with pCDM8mTRHR; details: 48 hours, read-out: K3 (Ki) for displacement of [3H]methylTRH binding
Method: In FIGS. 6 and 7, COS-1 cells were transfected with the TRH-R cDNA according to the present invention, in the mammalian expression vector pCDM8 (pCDM8m TRHR) and assayed for binding and responses 48 hours later. Specifically, FIG. 6, depicts the TRH (filled squares) and chlordiazepoxide (unfilled circles) competition for the binding of [^3 H]methylTRH. COS-1 cells transfected with pCDM8mTRHR were assayed for the binding of [^3 H]methylTRH in the presence of increasing amounts of either unlabeled TRH or chlordiazepoxide. Results are presented as mean ± range of data from duplicate determinations in one of two similar experiments. In FIG. 7, COS-1 cells transfected with pCDM8mTRHR were labeled with myo-[^3 H]inositol for 48 hours, washed, and tested for dose-dependent stimulation of inositol phosphate production by TRH. The results are presented as mean ± S.D. of triplicate determinations from one of two similar experiments. […]
No specific binding or TRH stimulated inositol phosphate formation was detectable in untransfected COS-1 cells or cells transfected with pCDM8 alone. As depicted in FIG. 6, [^3 H]methylTRH binding and displacement by TRH and chlordiazepoxide were measured. […]

pituitary TRH-R = details: Neuroendocrinology 32:310 (1981); cited from earlier work

For `NC(=O)[C@@H]1CCCN1C(=O)[C@H](Cc1cnc[nH]1)NC(=O)[C@@H]1CCC(=O)N1` [TRH, thyrotropin releasing hormone], the Ki [1] was about 30 nM, the “lowest TRH concentration that evoked an electrophysiological response” value [2] was 1 nM and the EC50 ([2]; read-out: TRH concentration giving half-maximal electrophysiological response) was 10 nM. It also gave an EC100 ([2]; read-out: TRH concentration giving maximum electrophysiological response) of 0.1 µM, an EC50 [3] of about 10 nM and a Ki [4] of 10 nM.

`CNC1=Nc2ccc(Cl)cc2C(c2ccccc2)=[N+]([O-])C1` [chlordiazepoxide] showed a Ki ([1]; Xenopus oocytes, 3 days after injection of 5 ng in vitro transcribed RNA, calculated, approximate, read-out: apparent inhibition constant (Ki) for inhibition of [3H]methylTRH binding) of about 3000 nM and a Ki [4] of 20000 nM.

For [^3 H]methylTRH, the “affinity relative to TRH for the pituitary TRH-R (higher)” value (pituitary TRH-R) is listed as 10 fold.
